Laboratory results as given in patent US6365652B2, “Trisaryl-1,3,5-triazine ultraviolet light absorbers” (Ciba Specialty Chemicals Corporation, priority 1997, dated 2002).

Legend:
[1] = QUV accelerated weathering (UVB-313 bulbs) of acrylic urethane clear coat; conditions: Example 10
From the text: Compounds D and E were formulated in clear coatings which were applied to panels for accelerated weathering testing as follows. Compound D or E (1% or 2% based on total resin solids) and/or SANDUVOR® S-3055 HALS-type stabilizer (1% based on total resin solids) were predissolved in the solvent mixture (to a 5-10% solids level) and added to the clear acrylic urethane formulation given in Table 3 below. Components I and II were mixed just before use. Cold roll steel panels measuring 4″×12″ and precoated with an electro-coat primer ED505A and a white polyester acrylic melamine base-coat #542AB839, obtained from ACT Laboratories, Inc. (Hillsdale, Mich.) were coated with the clear coating formulations of Table 3. The draw-down technique, using WC-60 WireCators™ (Leneta Co., Hohokus, N.J.), was used to apply the clear coat to the pre-coated panels. The clear coats were allowed to flash for 10 min at ambient temperature and cured for 30 min at 135° C.
Accelerated weathering was carried out on the clear coating formulations using a QUV device equipped with UVB-313 fluorescent bulbs. […] Specular properties such as gloss ([…], ASTMD523) and distinctness of image (“DOI”) (Dorigon Meter D47R-6FT, Hunter Associate Laboratory) and yellowing (“Delta b”) were measured as a function of weathering time. […]

[2] = Bonding/migration in acrylic/melamine clearcoat on RIM substrate, microtome UV depth profile at 340 nm; conditions: 3% on total resin solids, cure 30 min at 135° C.
Description: Compound E was investigated to determine whether it forms a chemical bond with the acrylic/melamine resin matrix during curing. For this purpose, it was added to a clearcoat formulation and coated onto a plastic substrate, as described below. Non-bondable UV absorbers readily migrate from clearcoats into plastic substrates upon curing the coating. An absorber which bonds to the matrix should not migrate into the plastic substrate to any significant extent.
The acrylic/melamine resin formulation utilized was as follows: […]
40.6 g JONCRYL® 510 acrylic resin (S.C. Johnson, Inc. Racine, Wis.)
17.5 g CYMEL® 303 crosslinker (Cytec Industries, Inc., West Paterson, N.J.)
0.52 g CYCAT® 4040 catalyst (Cytec Industries, Inc., West Paterson, N.J.)
0.50 g DC 57 flow control agent […]
After cure, the coating and part of the substrate were microtomed into 10 μm thick slices parallel to the coating surface. […] Each microtomed slice was mounted between two microscope slides and its UV absorption spectrum measured using a Perkin-Elmer Lambda 2 spectrophotometer. The absorbance per micrometer sample thickness was determined at the prominent 340 nm absorption band intrinsic to this UVA.
The results of the UV analysis were plotted as a function of depth. […] By measuring the area under the curve, the quantity of Compound E remaining in the coatings and the fraction that migrated into the substrates were estimated. […]

[3] = Solubility in solvent mixture (1:1:1 xylenes:MAK:PM acetate); type: physicochemical
From the text: Compound E (the disubstituted amide) was compared against Compound B (the monosubstituted amide) for solubility in a 1:1:1 mixture of xylenes:methyl amyl ketone (MAK):propylene glycol methyl ether acetate (PM acetate), which is a typical coatings solvent mixture.

[4] = Compatibility with acrylic urethane Component I (polyol component of two-component clearcoat); type: physicochemical; conditions: for Compatibility in fully formulated coating: after addition of DESMODUR N-3390 and 17 parts solvent mixture
From the text: Compound E was again compared against Compound B, this time for compatibility in the following resin formulation which is the polyol component of a typical two-component acrylic urethane clearcoat formulation:
100 parts Acrylic Resin—JONCRYL® CDX-588 (70% Solids) (S.C. Johnson & Son, Inc., Racine, Wis.
5 parts—1 part Dibutyltin Dilaurate (T-12, Air Products, Allentown, Pa.)
45 parts Solvent Mixture (1:1:1 xylenes:MAK:PM Acetate)
1 part Hindered Amine Light Stabilizer (SANDUVOR® S-3055, Clariant Corp., Charlotte, N.C.).

[5] = 1 wt % on total resin solids, 5° C.
[6] = 1 wt % on total resin solids, 23° C.
[7] = 1 wt % on total resin solids, 60° C.

CCCCN(CCO)C(=O)COc1ccc(-c2nc(-c3ccc(C)cc3C)nc(-c3ccc(C)cc3C)n2)c(O)c1 [Compound E, 4-[4,6-Bis(2′4′-dimethylphenyl)-1,3,5-triazin-2-yl]-3-hydroxyphenoxyacetic acid, N-(n-butyl)-N-(2-hydroxyethyl)amide]
Lifetime of coating compositions (percent gloss retention, percent DOI retention, delta b) compared to the unstabilized composition [1]: extend the lifetime | Fraction of added compound remaining in the coating [2]: about 95% | Solubility ([3]; 5 wt %, 5° C.): Yes | Solubility ([3]; 5 wt %, 23° C.): Yes | Solubility ([3]; 5 wt %, 50° C.): Yes | Solubility ([3]; 10 wt %, 5° C.): did not crystallize out of solution | Solubility ([3]; 10 wt %, 5° C., listed as EX1 (E)): Yes | Solubility ([3]; 10 wt %, 23° C.): Yes | Solubility ([3]; 10 wt %, 50° C.): Yes | Dissolution in the solvent mixture ([3]; 10 wt %, temperature not stated): fully dissolved | Compatibility [4, 5]: Yes | Compatibility [4, 6]: Yes | Compatibility [4, 7]: Yes | Compatibility ([4]; 2 wt % on total resin solids, 5° C.): Yes | Compatibility ([4]; 2 wt % on total resin solids, 23° C.): Yes | Compatibility ([4]; 2 wt % on total resin solids, 60° C.): Yes | Compatibility with the resin component ([4]; 5° C., concentration not given): compatible | Compatibility in fully formulated coating [4]: nor did it adversely affect the compatibility

Cc1ccc(-c2nc(-c3ccc(C)cc3C)nc(-c3ccc(OCC(=O)NCCO)cc3O)n2)c(C)c1 [Compound B, 4-[4,6-Bis(2′4′-dimethylphenyl)-1,3,5-triazin-2-yl]-3-hydroxyphenoxyacetic acid, N-(2-hydroxyethyl)amide, reference compound]
Solubility ([3]; 5 wt %, 5° C.): No | Solubility ([3]; 5 wt %, 23° C.): No | Solubility ([3]; 5 wt %, 50° C.): did not dissolve | Solubility ([3]; 5 wt %, 50° C., listed as CEX1 (B)): No | Compatibility [4, 5]: not compatible | Compatibility ([4]; 1 wt % on total resin solids, 5° C., listed as CEX1 (B)): No | Compatibility [4, 6]: not compatible | Compatibility ([4]; 1 wt % on total resin solids, 23° C., listed as CEX1 (B)): No | Compatibility [4, 7]: not compatible | Compatibility ([4]; 1 wt % on total resin solids, 60° C., listed as CEX1 (B)): No | Compatibility in fully formulated coating [4]: did not result in the dissolution
